This is an account of results in patent US8846951B2 (AbbVie Inc., priority 2009, dated 2014).

For orientation: EC50 means the midpoint of the concentration-response curve.

For this test, the target named is T1, 5HT2C receptors (Homo sapiens, UniProt P28335).
T1 sequence (P28335 33-458): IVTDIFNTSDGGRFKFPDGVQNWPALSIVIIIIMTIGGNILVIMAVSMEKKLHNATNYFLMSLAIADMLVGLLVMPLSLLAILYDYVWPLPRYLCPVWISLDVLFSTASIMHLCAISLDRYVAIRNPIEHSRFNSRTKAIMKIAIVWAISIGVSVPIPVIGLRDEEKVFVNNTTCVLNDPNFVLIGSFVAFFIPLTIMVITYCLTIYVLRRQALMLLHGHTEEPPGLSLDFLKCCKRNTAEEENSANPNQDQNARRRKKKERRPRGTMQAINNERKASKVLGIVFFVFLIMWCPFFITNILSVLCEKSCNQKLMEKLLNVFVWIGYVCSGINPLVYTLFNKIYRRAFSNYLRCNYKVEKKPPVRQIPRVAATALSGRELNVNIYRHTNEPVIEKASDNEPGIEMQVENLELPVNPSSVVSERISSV
As to the kind of experiment: Human 5-HT2C functional assay in 1321N1 cells (intracellular calcium, FLIPR). The settings on record: 5-HT2c agonist activity, maximum calcium response. Type of test: cell-based. Further details: expressed in transfected cells; host or cells: 1321N1 cells. The procedure: (ii) Human 5-HT2C Functional Assay in 1321N1 Cells
Functional activity was determined by testing the effect of the compounds on intracellular calcium levels in 1321N1 cells stably transfected with the human 5-HT2C receptor. Cells were seeded into 96-well plates at 50,000 cells/well and grown overnight in tissue culture medium (DMEM with Glutamax I (Invitrogen), containing 10% dFCS, 50 μg/mL Gentamicin, 400 μg/mL Geneticin) at 37° C. and 7% CO2. Growth medium was replaced by medium without dFCS for overnight incubation. Cells were loaded with a fluorescent calcium-sensitive dye in the presence of 1% probenicid according to the manufacturer's protocol (Fluo4 AM, Molecular Devices). Serial compound dilutions (final concentrations 10^−10 to 10^−5 M) were added to the cells either alone or in the presence of serotonin (10^−9 M) and the maximum calcium response was determined using a FLIPR instrument (Molecular Devices). Concentration-response curves were fitted using a four-parameter logistic equation (GraphPad Prism). The concentration at which the compound exerts half its maximal effect is named the ‘effective concentration 50’ or ‘EC50’ and is listed in Table 2.
In general terms: Calcium assays in cells follow changes in intracellular calcium, usually with a dye or a luminescent sensor.
In the case of `O=C1NC[C@@H]2CN(Cc3ccccc3)C[C@@H]2c2ccccc21` (relative stereo) [Example 3, Cis-2-benzyl-1,2,3,3a,4,5-hexahydrobenzo[c]pyrrolo[3,4-e]azepin-6(10bH)-one], the EC50 worked out at 101 nM.

Turning to `O=C1NC[C@@H]2CN(Cc3cccc4ccccc34)C[C@@H]2c2ccccc21` (relative stereo) [Example 43, Cis-2-(naphthalen-1-ylmethyl)-1,2,3,3a,4,5-hexahydrobenzo[e]pyrrolo[3,4-e]azepin-6(10bH)-one], the EC50 was 81.9 nM.

Take `O=C1NC[C@@H]2CN(Cc3ccccc3Cl)C[C@H]2c2ccccc21` (relative stereo) [Example 33, Trans-2-(2-chlorobenzyl)-1,2,3,3a,4,5-hexahydrobenzo[c]pyrrolo[3,4-e]azepin-6(10bH)-one]: the EC50 is 32.9 nM.

For `Cc1ccc(C)c(CN2C[C@H]3CNC(=O)c4ccccc4[C@@H]3C2)c1` (relative stereo) [Example 23, Trans-2-(2,5-dimethylbenzyl)-1,2,3,3a,4,5-hexahydrobenzo[c]pyrrolo[3,4-e]azepin-6(10bH)-one], the EC50 came to 8.85 nM.

In the case of `Cc1ccc(CN2C[C@H]3CNC(=O)c4ccccc4[C@@H]3C2)c(C)c1` (relative stereo) [Example 24, Trans-2-(2,4-dimethylbenzyl)-1,2,3,3a,4,5-hexahydrobenzo[c]pyrrolo[3,4-e]azepin-6(10bH)-one], the 50% effective concentration (EC50) came to 45.6 nM.

On to `Cc1ccc(CN2C[C@H]3CNC(=O)c4ccccc4[C@@H]3C2)cc1C` (relative stereo) [Example 25, Trans-2-(3,4-dimethylbenzyl)-1,2,3,3a,4,5-hexahydrobenzo[c]pyrrolo[3,4-e]azepin-6(10bH)-one], for which the EC50 is 40.2 nM.

Consider `O=C1NC[C@@H]2CN(Cc3cc(Cl)ccc3Cl)C[C@H]2c2ccccc21` (relative stereo) [Example 31, Trans-2-(2,5-dichlorobenzyl)-1,2,3,3a,4,5-hexahydrobenzo[c]pyrrolo[3,4-e]azepin-6(10bH)-one], for which the half-maximal effective concentration (EC50) turned out to be 4.05 nM.

With `O=C1NC[C@@H]2CNC[C@@H]2c2ccccc21` (relative stereo) [Example 4, Cis-1,2,3,3a,4,5-hexahydrobenzo[c]pyrrolo[3,4-e]azepin-6(10bH)-one], the EC50 stood at 202 nM.

For the compound `Cc1cccc(CN2C[C@H]3CNC(=O)c4ccccc4[C@@H]3C2)c1` (relative stereo) [Example 26, Trans-2-(3-methylbenzyl)-1,2,3,3a,4,5-hexahydrobenzo[c]pyrrolo[3,4-e]azepin-6(10bH)-one], the EC50 was found to be 10.3 nM.

Consider `O=C1NC[C@@H]2CN(Cc3cccc(Cl)c3)C[C@H]2c2ccccc21` (relative stereo) [Example 32, Trans-2-(3-chlorobenzyl)-1,2,3,3a,4,5-hexahydrobenzo[c]pyrrolo[3,4-e]azepin-6(10bH)-one], for which the EC50 turned out to be 19.3 nM.

As to `Cc1cc(C)cc(CN2C[C@H]3CNC(=O)c4ccccc4[C@@H]3C2)c1` (relative stereo) [Example 22, Trans-2-(3,5-dimethylbenzyl)-1,2,3,3a,4,5-hexahydrobenzo[c]pyrrolo[3,4-e]azepin-6(10bH)-one], the half-maximal effective concentration (EC50) turned out to be 5.22 nM.

Take `O=C1NC[C@@H]2CN(Cc3cccc(F)c3)C[C@@H]2c2ccccc21` (relative stereo) [Example 42, Cis-2-(3-fluorobenzyl)-1,2,3,3a,4,5-hexahydrobenzo[c]pyrrolo[3,4-e]azepin-6(10bH)-one]: the EC50 was determined as 18.1 nM.

For `O=C1NC[C@@H]2CN(Cc3ccccc3F)C[C@H]2c2ccccc21` (relative stereo) [Example 35, Trans-2-(2-fluorobenzyl)-1,2,3,3a,4,5-hexahydrobenzo[c]pyrrolo[3,4-e]azepin-6(10bH)-one], the EC50 worked out at 12.3 nM.

For the compound `O=C1NC[C@@H]2CN(Cc3cc(Cl)cc(Cl)c3)C[C@@H]2c2ccccc21` (relative stereo) [Example 40, Cis-2-(3,5-dichlorobenzyl)-1,2,3,3a,4,5-hexahydrobenzo[c]pyrrolo[3,4-e]azepin-6(10bH)-one], the EC50 stood at 11.3 nM.
